Target: T1, human PDE9A2 (Homo sapiens, UniProt O76083)
T1 construct: made in house; host or cells: Sf9 insect cells (infected; crude lysate used as enzyme source)
Assay: PDE9A2 enzymatic activity assay (scintillation proximity assay)
Type: biochemical
Conditions: for IC50: specific IC50 value is within the given range
Protocol: The PDE9A2 enzymatic activity assay was run as scintillation proximity assay (SPA), in general according to the protocol of the manufacturer (Amersham Biosciences, product number: TRKQ 7100).
As enzyme source, lysate (PBS with 1% Triton X-100 supplemented with protease inhibitors, cell debris removed by centrifugation at 13.000 rpm for 30 min) of SF 9 cell expressing the human PDE9A2 was used. The total protein amount included in the assay varied upon infection and production efficacy of the SF9 cells and lay in the range of 0.1-100 ng.
In general, the assay conditions were as follows: • total assay volume: 40 microliter • protein amount: 0.1-50 ng • substrate concentration (cGMP): 20 nanomolar; ˜1 mCi/1 • incubation time: 60 min at room temperature • final DMSO concentration: 0.2-1
The assays were run in 384-well format. The test reagents as well as the enzyme and the substrate were diluted in assay buffer. The assay buffer contained 50 mM Tris, 8.3 mM MgCl2, 1.7 mM EGTA, 0.1% BSA, 0.05% Tween 20; the pH of assay buffer was adjusted to 7.5. The reaction was stopped by applying a PDE9 specific inhibitor (e.g. compounds according to WO04099210 or WO04099211) in excess.
The activity of the positive control (minus the negative control=background) is set to 100% and activity in the presence of test compound is expressed relative to these 100%. Within this setting, an inhibition above 100% might be possible due to the nature of the variation of the positive control within the assay. In the following inhibition of PDE 9A2 is presented for a concentration at 10 μM, if not indicated otherwise.
IC50 can be calculated with GraphPadPrism or other suited software setting the positive control as 100 and the negative control as 0. For calculation of IC50 dilutions of the test compounds (substrates) are to be selected and tested following the aforementioned protocol.

[1] = read-out: % Inhibition of PDE 9A2

T1 sequence (O76083 1-533 isoform O76083-2): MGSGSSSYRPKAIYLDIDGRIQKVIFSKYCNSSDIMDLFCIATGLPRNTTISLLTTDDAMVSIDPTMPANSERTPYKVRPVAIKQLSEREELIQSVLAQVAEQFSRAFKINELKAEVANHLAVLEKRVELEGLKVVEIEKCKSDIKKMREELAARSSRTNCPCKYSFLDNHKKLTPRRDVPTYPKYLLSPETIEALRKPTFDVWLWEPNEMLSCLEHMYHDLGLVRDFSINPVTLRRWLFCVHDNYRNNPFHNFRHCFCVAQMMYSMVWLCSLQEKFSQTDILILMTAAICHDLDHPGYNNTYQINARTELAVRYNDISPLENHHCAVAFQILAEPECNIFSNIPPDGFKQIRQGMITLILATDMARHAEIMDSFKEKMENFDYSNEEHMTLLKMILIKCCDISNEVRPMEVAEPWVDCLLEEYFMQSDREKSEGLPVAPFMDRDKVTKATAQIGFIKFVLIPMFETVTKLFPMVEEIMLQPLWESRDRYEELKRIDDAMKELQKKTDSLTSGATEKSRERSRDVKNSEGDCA

| inhibition at 10 µM [1] [%] | IC50 [µM] | inhibition at 1 µM (at 1 μM, read-out: % Inhibition of PDE 9A2) [%] | Compound |
| --- | --- | --- | --- |
| 97 | 0.001 to 0.1 |  | COc1cccc(Cl)c1Cc1nc2c(cnn2C2CCC(F)(F)CC2)c(=O)[nH]1 [Example 37] |
| 85 | 0.101 to 1.5 |  | O=C(O)Cc1ccccc1Cc1nc2c(cnn2C2CCC(F)(F)CC2)c(=O)[nH]1 [Example 38] |
| 84 | 0.101 to 1.5 |  | CC(Cc1nc2c(cnn2C2CCC(F)(F)CC2)c(=O)[nH]1)C(=O)N1CCCCC1 (centres unmarked) [Example 39] |
| 92 | 0.101 to 1.5 |  | O=c1[nH]c(Cc2ccc(F)cc2Br)nc2c1cnn2C1CCC(F)(F)CC1 [Example 44] |
| 97 | 0.001 to 0.1 |  | O=c1[nH]c(Cc2cc(F)ccc2Br)nc2c1cnn2C1CCC(F)(F)CC1 [Example 45] |
| 98 | 0.001 to 0.1 |  | O=c1[nH]c(Cc2ncccc2Br)nc2c1cnn2C1CCC(F)(F)CC1 [Example 46] |
| 95 | 0.001 to 0.1 |  | COc1ccccc1Cc1nc2c(cnn2C2CCC(F)(F)CC2)c(=O)[nH]1 [Example 48-3] |
| 99 | 0.001 to 0.1 |  | COc1ccc(F)cc1Cc1nc2c(cnn2C2CCC(F)(F)CC2)c(=O)[nH]1 [Example 48-4] |
| 100 | 0.001 to 0.1 |  | COc1cncc(-c2ccccc2Cc2nc3c(cnn3C3CCC(F)(F)CC3)c(=O)[nH]2)c1 [Example 53] |
| 102 | 0.001 to 0.1 |  | N#Cc1ccc(-c2ccccc2Cc2nc3c(cnn3C3CCC(F)(F)CC3)c(=O)[nH]2)cn1 [Example 54] |
| 100 | 0.001 to 0.1 |  | COc1cc(-c2ccccc2Cc2nc3c(cnn3C3CCC(F)(F)CC3)c(=O)[nH]2)ccn1 [Example 55] |
| 99 | 0.001 to 0.1 |  | COc1ccc(-c2ccccc2Cc2nc3c(cnn3C3CCC(F)(F)CC3)c(=O)[nH]2)cn1 [Example 56] |
| 101 | 0.001 to 0.1 |  | N#Cc1ccc(-c2ccc(F)cc2Cc2nc3c(cnn3C3CCC(F)(F)CC3)c(=O)[nH]2)cn1 [Example 57] |
| 101 | 0.001 to 0.1 |  | COc1cncc(-c2ccc(F)cc2Cc2nc3c(cnn3C3CCC(F)(F)CC3)c(=O)[nH]2)c1 [Example 58] |
| 95 | 0.101 to 1.5 |  | COc1cc(-c2cc(F)ccc2Cc2nc3c(cnn3C3CCC(F)(F)CC3)c(=O)[nH]2)ccn1 [Example 59] |
| 99 | 0.001 to 0.1 |  | NC(=O)c1ccc(-c2ccc(F)cc2Cc2nc3c(cnn3C3CCC(F)(F)CC3)c(=O)[nH]2)cn1 [Example 61] |
| 100 | 0.001 to 0.1 |  | NC(=O)c1ccc(-c2cc(F)ccc2Cc2nc3c(cnn3C3CCC(F)(F)CC3)c(=O)[nH]2)cn1 [Example 62] |
| 93 | 0.101 to 1.5 |  | N#Cc1ccc(-c2cc(F)ccc2Cc2nc3c(cnn3C3CCC(F)(F)CC3)c(=O)[nH]2)cn1 [Example 63] |
| 97 | 0.001 to 0.1 |  | COc1cc(-c2ccc(F)cc2Cc2nc3c(cnn3C3CCC(F)(F)CC3)c(=O)[nH]2)ccn1 [Example 64] |
| 101 | 0.001 to 0.1 |  | COc1ccc(-c2ccc(F)cc2Cc2nc3c(cnn3C3CCC(F)(F)CC3)c(=O)[nH]2)cn1 [Example 65] |
| 100 | 0.001 to 0.1 |  | O=c1[nH]c(Cc2cc(F)ccc2-c2cccnc2)nc2c1cnn2C1CCC(F)(F)CC1 [Example 66] |
| 99 | 0.001 to 0.1 |  | COc1cncc(-c2cc(F)ccc2Cc2nc3c(cnn3C3CCC(F)(F)CC3)c(=O)[nH]2)c1 [Example 67] |
| 96 | 0.101 to 1.5 |  | COc1ccc(-c2cc(F)ccc2Cc2nc3c(cnn3C3CCC(F)(F)CC3)c(=O)[nH]2)cc1 [Example 68] |
| 97 | 0.101 to 1.5 |  | COc1ccc(-c2cc(F)ccc2Cc2nc3c(cnn3C3CCC(F)(F)CC3)c(=O)[nH]2)cn1 [Example 69] |
| 100 | 0.001 to 0.1 |  | O=c1[nH]c(Cc2cc(F)ccc2-c2ccncc2)nc2c1cnn2C1CCC(F)(F)CC1 [Example 70] |
| 98 | 0.001 to 0.1 |  | O=c1[nH]c(Cc2ccc(F)cc2-c2cccnc2)nc2c1cnn2C1CCC(F)(F)CC1 [Example 71] |
| 98 | 0.001 to 0.1 |  | Cn1nccc1-c1ccc(F)cc1Cc1nc2c(cnn2C2CCC(F)(F)CC2)c(=O)[nH]1 [Example 72-2] |

| inhibition at 10 µM [1] [%] | IC50 [µM] | inhibition at 1 µM (at 1 μM, read-out: % Inhibition of PDE 9A2) [%] | Compound |
| --- | --- | --- | --- |
| 98 | 0.001 to 0.1 |  | Cn1cc(-c2ccc(F)cc2Cc2nc3c(cnn3C3CCC(F)(F)CC3)c(=O)[nH]2)cn1 [Example 72-3] |
| 101 | 0.001 to 0.1 |  | O=c1[nH]c(Cc2cc(F)ccc2-c2ccnc(F)c2)nc2c1cnn2C1CCC(F)(F)CC1 [Example 72-4] |
| 99 | 0.001 to 0.1 |  | COc1ccc(-c2ccc(F)cc2Cc2nc3c(cnn3C3CCC(F)(F)CC3)c(=O)[nH]2)cc1 [Example 72-5] |
|  | 0.001 to 0.1 | 96 | N#Cc1ccc(-c2ccc(F)cc2Cc2nc3c(cnn3C3CCC(F)(F)CC3)c(=O)[nH]2)cc1 [Example 72-6] |
| 100 | 0.001 to 0.1 |  | O=c1[nH]c(Cc2cc(F)ccc2-c2ccc(F)nc2)nc2c1cnn2C1CCC(F)(F)CC1 [Example 72-7] |
| 98 | 0.001 to 0.1 |  | COc1ncccc1-c1ccc(F)cc1Cc1nc2c(cnn2C2CCC(F)(F)CC2)c(=O)[nH]1 [Example 72-8] |
| 100 | 0.001 to 0.1 |  | O=c1[nH]c(Cc2cc(F)ccc2-c2cncc(F)c2)nc2c1cnn2C1CCC(F)(F)CC1 [Example 72-9] |
| 97 | 0.101 to 1.5 |  | O=c1[nH]c(Cc2ccc(F)cc2-c2ccncc2)nc2c1cnn2C1CCC(F)(F)CC1 [Example 72] |
| 98 | 0.001 to 0.1 |  | Cc1ccc(-c2ccccc2Cc2nc3c(cnn3C3CCC(F)(F)CC3)c(=O)[nH]2)cn1 [Example 73] |
| 98 | 0.001 to 0.1 |  | O=c1[nH]c(Cc2ccccc2-c2ccnc(F)c2)nc2c1cnn2C1CCC(F)(F)CC1 [Example 74] |
| 101 | 0.001 to 0.1 |  | O=c1[nH]c(Cc2ccccc2-c2ccc(N3CCOCC3)nc2)nc2c1cnn2C1CCC(F)(F)CC1 [Example 75] |
| 99 | 0.001 to 0.1 |  | O=c1[nH]c(Cc2ccccc2-c2cncnc2)nc2c1cnn2C1CCC(F)(F)CC1 [Example 76] |
| 97 | 0.001 to 0.1 |  | O=c1[nH]c(Cc2ccccc2CCCN2CCOCC2)nc2c1cnn2C1CCC(F)(F)CC1 [Example 78] |
| 95 | 0.101 to 1.5 |  | CN(C)C(=O)Cc1ccccc1Cc1nc2c(cnn2C2CCC(F)(F)CC2)c(=O)[nH]1 [Example 79] |
| 95 | 0.101 to 1.5 |  | O=C(Cc1ccccc1Cc1nc2c(cnn2C2CCC(F)(F)CC2)c(=O)[nH]1)N1CCCCC1 [Example 81] |
| 91 | 0.101 to 1.5 |  | O=C(Cc1ccccc1Cc1nc2c(cnn2C2CCC(F)(F)CC2)c(=O)[nH]1)N1CCOCC1 [Example 82] |
| 88 | 0.101 to 1.5 |  | O=c1[nH]c(Cc2ccccc2CCO)nc2c1cnn2C1CCC(F)(F)CC1 [Example 83] |
| 81 | 0.101 to 1.5 |  | COC(=O)Cc1ccccc1Cc1nc2c(cnn2C2CCC(F)(F)CC2)c(=O)[nH]1 [Example 84] |
| 98 | 0.001 to 0.1 |  | O=c1[nH]c(Cc2cc(F)ccc2-n2cccn2)nc2c1cnn2C1CCC(F)(F)CC1 [Example 89] |
| 97 | 0.001 to 0.1 |  | O=c1[nH]c(Cc2cc(F)ccc2-c2ccccn2)nc2c1cnn2C1CCC(F)(F)CC1 [Example 90] |
| 95 | 0.001 to 0.1 |  | O=c1[nH]c(Cc2ccccc2-c2ccccn2)nc2c1cnn2C1CCC(F)(F)CC1 [Example 91] |
| 94 | 0.001 to 0.1 |  | Cc1ccc(-c2ccccc2Cc2nc3c(cnn3C3CCC(F)(F)CC3)c(=O)[nH]2)o1 [Example 93] |
| 98 | 0.001 to 0.1 |  | Cn1cc(-c2cccnc2Cc2nc3c(cnn3C3CCC(F)(F)CC3)c(=O)[nH]2)cn1 [Example 94] |
| 111 | 0.001 to 0.1 |  | Cc1ncn(-c2ccccc2Cc2nc3c(cnn3C3CCC(F)(F)CC3)c(=O)[nH]2)n1 [Example 95-1] |
| 97 | 0.001 to 0.1 |  | O=c1[nH]c(Cc2ccccc2-n2cccn2)nc2c1cnn2C1CCC(F)(F)CC1 [Example 95] |
| 93 | 0.001 to 0.1 |  | O=c1[nH]c(Cc2ncccc2-n2cccn2)nc2c1cnn2C1CCC(F)(F)CC1 [Example 96] |
| 100 | 0.001 to 0.1 |  | Cc1nc(-c2ccccc2Cc2nc3c(cnn3C3CCC(F)(F)CC3)c(=O)[nH]2)no1 [Example 97] |

| Compound | inhibition at 10 µM [1] [%] | IC50 [µM] | inhibition at 1 µM (at 1 μM, read-out: % Inhibition of PDE 9A2) [%] |
| --- | --- | --- | --- |
| CN1CCN(C(=O)Cc2ccccc2Cc2nc3c(cnn3C3CCC(F)(F)CC3)c(=O)[nH]2)CC1 [Example 80] | 91 | 0.101 to 1.5 |  |

— patent US9079905B2, “Compounds for the treatment of CNS disorders” (Boehringer Ingelheim International GmbH, priority 2008, dated 2015)
